From the supplement of paper PMC10307832

Legend:
Assay in all cases: relative viability (nuclei count vs DMSO), 5 days (fraction); higher = more cells survive
BEN = tested on: BEN
Method in brief: (§1)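 One day after seeding in 1536-well plates, lung cancer cell lines were dosed by pin tool. Dosing was either single-drug or a fixed anchor-drug dose plus five library-drug doses (not always all listed) in √10 steps. After 5 days, nuclei were stained in one fix-and-stain step and counted on 4× images, and relative viability is the nuclei count of treated wells over that of vehicle wells, given as the median of duplicate plates.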

EMC-BAC-2 = tested on: EMC-BAC-2
Method in brief: as §1

H3255 = tested on: H3255
Method in brief: as §1

HOP-62 = tested on: HOP-62
Method in brief: as §1

LCLC-97TM1 = tested on: LCLC-97TM1
Method in brief: as §1

LXF-289 = tested on: LXF-289
Method in brief: as §1

NCI-H1563 = tested on: NCI-H1563
Method in brief: as §1

NCI-H1650 = tested on: NCI-H1650
Method in brief: as §1

NCI-H1915 = tested on: NCI-H1915
Method in brief: as §1

NCI-H1993 = tested on: NCI-H1993
Method in brief: as §1

NCI-H2009 = tested on: NCI-H2009
Method in brief: as §1

NCI-H2023 = tested on: NCI-H2023
Method in brief: as §1

NCI-H2085 = tested on: NCI-H2085
Method in brief: as §1

NCI-H2126 = tested on: NCI-H2126
Method in brief: as §1

NCI-H2347 = tested on: NCI-H2347
Method in brief: as §1

NCI-H322M = tested on: NCI-H322M
Method in brief: as §1

NCI-H358 = tested on: NCI-H358
Method in brief: as §1

NCI-H647 = tested on: NCI-H647
Method in brief: as §1

NCI-H661 = tested on: NCI-H661
Method in brief: as §1

NCI-H727 = tested on: NCI-H727
Method in brief: as §1

PC-14 = tested on: PC-14
Method in brief: as §1

SK-LU-1 = tested on: SK-LU-1
Method in brief: as §1

SW 1573 = tested on: SW 1573
Method in brief: as §1

COc1cc(N2CCC(C(N)=O)CC2)ccc1Nc1nc(N)c(Cl)c(Nc2ccccc2S(=O)(=O)C(C)C)n1 [HG-5-88-01] + C[C@@H](Oc1cc(-c2cnn(C3CCNCC3)c2)cnc1N)c1c(Cl)ccc(F)c1Cl [Crizotinib] (partner 1 µM)
relative viability (BEN; first compound 0.04 µM): 0.975
relative viability (BEN; first compound 0.1265 µM): 0.915
relative viability (BEN; first compound 0.4 µM): 0.895
relative viability (BEN; first compound 1.265 µM): 0.625
relative viability (BEN; first compound 4 µM): 0.962
relative viability (EMC-BAC-2; first compound 0.04 µM): 0.776
relative viability (EMC-BAC-2; first compound 0.1265 µM): 0.748
relative viability (EMC-BAC-2; first compound 0.4 µM): 0.769
relative viability (EMC-BAC-2; first compound 1.265 µM): 0.77
relative viability (EMC-BAC-2; first compound 4 µM): 0.667
relative viability (H3255; first compound 0.04 µM): 0.844
relative viability (H3255; first compound 0.1265 µM): 0.949
relative viability (H3255; first compound 0.4 µM): 0.833
relative viability (H3255; first compound 4 µM): 0.308
relative viability (HOP-62; first compound 0.04 µM): 0.894
relative viability (HOP-62; first compound 0.1265 µM): 1.12
relative viability (HOP-62; first compound 0.4 µM): 0.83
relative viability (HOP-62; first compound 1.265 µM): 0.925
relative viability (HOP-62; first compound 4 µM): 0.96
relative viability (LCLC-97TM1; first compound 0.04 µM): 0.461
relative viability (LCLC-97TM1; first compound 0.1265 µM): 0.379
relative viability (LCLC-97TM1; first compound 0.4 µM): 0.359
relative viability (LCLC-97TM1; first compound 1.265 µM): 0.23
relative viability (LCLC-97TM1; first compound 4 µM): 0.239
relative viability (LXF-289; first compound 0.04 µM): 0.804
relative viability (LXF-289; first compound 0.1265 µM): 0.797
relative viability (LXF-289; first compound 0.4 µM): 0.851
relative viability (LXF-289; first compound 1.265 µM): 0.831
relative viability (LXF-289; first compound 4 µM): 0.827
relative viability (NCI-H1563; first compound 0.04 µM): 0.917
relative viability (NCI-H1563; first compound 0.1265 µM): 0.88
relative viability (NCI-H1563; first compound 0.4 µM): 0.832
relative viability (NCI-H1563; first compound 1.265 µM): 0.806
relative viability (NCI-H1563; first compound 4 µM): 0.854
relative viability (NCI-H1650; first compound 0.04 µM): 1.04
relative viability (NCI-H1650; first compound 0.1265 µM): 1.01
relative viability (NCI-H1650; first compound 0.4 µM): 0.948
relative viability (NCI-H1650; first compound 1.265 µM): 0.817
relative viability (NCI-H1650; first compound 4 µM): 0.373
relative viability (NCI-H1915; first compound 0.04 µM): 0.926
relative viability (NCI-H1915; first compound 0.1265 µM): 0.885
relative viability (NCI-H1915; first compound 0.4 µM): 0.906
relative viability (NCI-H1915; first compound 1.265 µM): 0.928
relative viability (NCI-H1915; first compound 4 µM): 0.808
relative viability (NCI-H1993; first compound 0.04 µM): 0.988
relative viability (NCI-H1993; first compound 0.1265 µM): 0.773
relative viability (NCI-H1993; first compound 0.4 µM): 0.892
relative viability (NCI-H1993; first compound 1.265 µM): 0.615
relative viability (NCI-H1993; first compound 4 µM): 0.753
relative viability (NCI-H2009; first compound 0.04 µM): 1.05
relative viability (NCI-H2009; first compound 0.1265 µM): 1.03
relative viability (NCI-H2009; first compound 0.4 µM): 0.938
relative viability (NCI-H2009; first compound 1.265 µM): 0.962
relative viability (NCI-H2009; first compound 4 µM): 0.853
relative viability (NCI-H2023; first compound 0.04 µM): 0.729
relative viability (NCI-H2023; first compound 0.1265 µM): 0.763
relative viability (NCI-H2023; first compound 0.4 µM): 0.543
relative viability (NCI-H2023; first compound 1.265 µM): 0.405
relative viability (NCI-H2023; first compound 4 µM): 0.118
relative viability (NCI-H2085; first compound 0.04 µM): 0.734
relative viability (NCI-H2085; first compound 0.1265 µM): 0.856
relative viability (NCI-H2085; first compound 0.4 µM): 0.873
relative viability (NCI-H2085; first compound 1.265 µM): 0.694
relative viability (NCI-H2085; first compound 4 µM): 0.63
relative viability (NCI-H2126; first compound 0.04 µM): 1.02
relative viability (NCI-H2126; first compound 0.1265 µM): 1.09
relative viability (NCI-H2126; first compound 0.4 µM): 0.976
relative viability (NCI-H2126; first compound 1.265 µM): 0.968
relative viability (NCI-H2126; first compound 4 µM): 1.01
relative viability (NCI-H2347; first compound 0.04 µM): 0.779
relative viability (NCI-H2347; first compound 0.1265 µM): 0.81
relative viability (NCI-H2347; first compound 0.4 µM): 0.834
relative viability (NCI-H2347; first compound 1.265 µM): 0.634
relative viability (NCI-H2347; first compound 4 µM): 0.744
relative viability (NCI-H322M; first compound 0.04 µM): 0.978
relative viability (NCI-H322M; first compound 0.1265 µM): 0.855
relative viability (NCI-H322M; first compound 0.4 µM): 0.882
relative viability (NCI-H322M; first compound 1.265 µM): 0.687
relative viability (NCI-H322M; first compound 4 µM): 0.818
relative viability (NCI-H358; first compound 0.04 µM): 0.526
relative viability (NCI-H358; first compound 0.1265 µM): 0.461
relative viability (NCI-H358; first compound 0.4 µM): 0.529
relative viability (NCI-H358; first compound 1.265 µM): 0.318
relative viability (NCI-H358; first compound 4 µM): 0.235
relative viability (NCI-H647; first compound 0.04 µM): 1.16
relative viability (NCI-H647; first compound 0.1265 µM): 0.992
relative viability (NCI-H647; first compound 1.265 µM): 0.955
relative viability (NCI-H647; first compound 4 µM): 0.393
relative viability (NCI-H661; first compound 0.1265 µM): 0.964
relative viability (NCI-H661; first compound 0.4 µM): 1.1
relative viability (NCI-H661; first compound 1.265 µM): 0.777
relative viability (NCI-H661; first compound 4 µM): 0.926
relative viability (NCI-H727; first compound 0.04 µM): 0.931
relative viability (NCI-H727; first compound 0.1265 µM): 0.937
relative viability (NCI-H727; first compound 0.4 µM): 0.827
relative viability (NCI-H727; first compound 1.265 µM): 0.492
relative viability (NCI-H727; first compound 4 µM): 0.585
relative viability (PC-14; first compound 0.04 µM): 0.863
relative viability (PC-14; first compound 0.1265 µM): 0.972
relative viability (PC-14; first compound 0.4 µM): 0.914
relative viability (PC-14; first compound 1.265 µM): 0.783
relative viability (PC-14; first compound 4 µM): 0.238
relative viability (SK-LU-1; first compound 0.04 µM): 1.04
relative viability (SK-LU-1; first compound 0.1265 µM): 0.793
relative viability (SK-LU-1; first compound 0.4 µM): 0.867
relative viability (SK-LU-1; first compound 1.265 µM): 0.845
relative viability (SK-LU-1; first compound 4 µM): 0.595
relative viability (SW 1573; first compound 0.04 µM): 0.806
relative viability (SW 1573; first compound 0.1265 µM): 0.848
relative viability (SW 1573; first compound 0.4 µM): 0.907
relative viability (SW 1573; first compound 1.265 µM): 0.568
relative viability (SW 1573; first compound 4 µM): 0.475
